Data from paper PMC9609767, “Radiosynthesis and Preclinical Evaluation of an ^18F-Labeled Triazolopyridopyrazine-Based Inhibitor for Neuroimaging of the Phosphodiesterase 2A (PDE2A)” (Pharmaceuticals, 2022).
Several values for one entry are separate records, joined by “and”; a condition that tells them apart may be missing. Identical values can stand only once. Like-named read-outs stand apart in the source and are kept apart here.

Columns and labels:
human PDE2A = test system: human PDE2A; design: method as in PMID 15555642; conditions: cited from earlier work
rat PDE2A = target: T1, rat PDE2A (Rattus norvegicus, UniProt Q01062); test: In vitro autoradiography with rat brain cryosections; type: binding; conditions: co-incubation with 1 µM inhibitor
T1 construct: Frozen sagittal 12 µm brain sections obtained from female SPRD and male Wistar-Han rats; from tissue; host or cells: rat brain cryosections (female SPRD and male Wistar-Han rats)
T1 sequence (Q01062 1-928): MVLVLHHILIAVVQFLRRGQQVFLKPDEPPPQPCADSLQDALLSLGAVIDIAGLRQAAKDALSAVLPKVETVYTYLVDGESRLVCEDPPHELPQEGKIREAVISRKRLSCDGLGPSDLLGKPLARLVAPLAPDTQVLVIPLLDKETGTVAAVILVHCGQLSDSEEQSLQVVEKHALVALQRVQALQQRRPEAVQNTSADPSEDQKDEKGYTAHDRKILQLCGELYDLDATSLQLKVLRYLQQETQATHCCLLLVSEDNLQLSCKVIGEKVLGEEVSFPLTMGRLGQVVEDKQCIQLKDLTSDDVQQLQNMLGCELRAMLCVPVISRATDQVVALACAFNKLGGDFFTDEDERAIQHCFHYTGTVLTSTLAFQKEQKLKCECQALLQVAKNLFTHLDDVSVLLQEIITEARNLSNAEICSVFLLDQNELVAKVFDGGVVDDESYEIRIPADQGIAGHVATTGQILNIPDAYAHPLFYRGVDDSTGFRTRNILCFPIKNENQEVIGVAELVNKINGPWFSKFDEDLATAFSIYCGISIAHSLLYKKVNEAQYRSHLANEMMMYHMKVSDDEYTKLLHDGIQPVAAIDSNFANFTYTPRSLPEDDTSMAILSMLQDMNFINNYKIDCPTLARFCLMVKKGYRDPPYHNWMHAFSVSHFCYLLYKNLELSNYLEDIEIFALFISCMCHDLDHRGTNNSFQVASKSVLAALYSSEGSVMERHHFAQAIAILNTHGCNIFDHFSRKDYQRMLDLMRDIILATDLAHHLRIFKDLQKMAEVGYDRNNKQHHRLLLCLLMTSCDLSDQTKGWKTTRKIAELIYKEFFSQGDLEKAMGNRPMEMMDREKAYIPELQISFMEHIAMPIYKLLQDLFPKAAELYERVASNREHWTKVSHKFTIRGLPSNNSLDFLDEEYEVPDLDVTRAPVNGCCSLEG
Experimental: Frozen sagittal 12 µm brain sections obtained from female SPRD and male Wistar-Han rats (10–12 weeks old) were thawed, dried in a stream of cold air, and pre-incubated for 15 min with incubation buffer (50 mM TRIS-HCl, pH 7.4; supplemented with 1 mM MgCl2, 1 mM CaCl2, 2 mM KCl, and 2 U/mL Adenosine deaminase) at ambient temperature. Afterwards, the buffer was decanted and the cryosections dried again in a stream of cold air before covering with the radioligand in incubation buffer (~0.1 MBq [^18F]11/mL; Am at the time of the incubation ~10 GBq/µmol) for incubation at ambient temperature for 90 min.
The incubation was terminated by pouring off the incubation solution and washing the slides twice with ice-cold buffer (50 mM TRIS-HCl, pH 7.4/4 °C) for 2 min and rinsing by dipping in ice-cold demineralised water. Immediately afterwards, the sections were dried in a stream of cold air and exposed along with appropriate radioactive standards (1 µL of serial dilutions of the radioligand in incubation buffer, pipetted on a microscopic glass slide and air dried) to an ^18F-sensitive image plate for 120 min. Finally, the imaging plate was scanned at the highest possible resolution (pixel size 12.6 µm × 12.6 µm) in a phosphor imager (HD-CR 35; Duerr NDT GmbH, Bietigheim Bissingen, Germany) and the digital image analysed with an image analysis program (Aida Image Analyzer v. 4.26; Elysia-raytest GmbH, Straubenhardt, Germany).
For the determination of the protein concentration, four dried 12 µm cryosections were scraped from the microscopic glass slides, transferred in an Eppendorf tube and solubilised with 200 µL of demineralised water. The protein concentration of this solution was determined by a commercial assay (Pierce™ BCA Protein Assay Kit, Thermo Fisher Scientific, Schwerte, Germany). The area of the cryosections was determined during the analysis of the digitized autoradiographic images, and the volume was calculated by multiplying the area with the thickness of the slices. Finally, the protein concentration of the tissue was calculated (37 mg protein/g wet weight).

bovine PDE2A = test system: bovine PDE2A; design: method as in PMID 15555642; conditions: cited from earlier work
PDE10A [1] = test system: PDE10A; design: method as in earlier work; conditions: read-out: IC50, PDE10A (PDE10A1); cited from earlier work
PDE10A [2] = test: Inhibitory potency against PDE10A; type: biochemical; conditions: PDE2A vs. PDE10A
PDE2A [3] = test system: PDE2A; design: method as in earlier work; conditions: cited from earlier work
PDE2A [4] = conditions: cited from earlier work

Row | Compound | IC50 (human PDE2A) | blocking of [18F]11 binding in rat brain sections (rat PDE2A) | IC50 (bovine PDE2A) | IC50 (PDE10A [1]) | selectivity vs. PDE10A (PDE10A [2]) | IC50 (PDE2A [3]) | IC50 (PDE2A [4])
1 | COc1ccc(Cc2nn3c([C@@H](CCCc4ccccc4)[C@@H](C)O)nc(C)c3c(=O)[nH]2)cc1OC [BAY60-7550] | 4.7 nM | completely blocked | 2 nM |  |  |  | 
2 | CCCC(O)c1ccc(F)c(-c2nnc3c(C)nc4ccc(C5CC5)nc4n23)c1 (centres unmarked) [Compound 11, 1-[3-(2-Cyclopropyl-6-methylpyrido[3,2-e][1,2,4]triazolo[4,3-a]pyrazin-9-yl)-4-fluorophenyl]butan-1-ol] |  |  |  | ~2000 nM and 1910 nM | ~1000 fold | 1.99 nM | 
3 | Cc1nc(-c2cnn(C)c2-c2ccc(C(F)(F)F)cn2)c2c(N3CCC3)ncnn12 [PF-05180999, reference compound] |  | completely blocked |  |  |  |  | 1.6 nM
